Source: PMC3436176 (The Journal of Biological Chemistry, 2012)

Key:
GPVI-Fc2 (GPVI dimer) = target: T1, GPVI-Fc2 (GPVI dimer) (Homo sapiens, UniProt Q9HCN6); experiment: ELISA: GPVI dimer binding to immobilized collagenous substrates; conditions: for Kd (monomer)/Kd (dimer): binding to collagenous substrates
T1 sequence (Q9HCN6 21-214 limits assumed): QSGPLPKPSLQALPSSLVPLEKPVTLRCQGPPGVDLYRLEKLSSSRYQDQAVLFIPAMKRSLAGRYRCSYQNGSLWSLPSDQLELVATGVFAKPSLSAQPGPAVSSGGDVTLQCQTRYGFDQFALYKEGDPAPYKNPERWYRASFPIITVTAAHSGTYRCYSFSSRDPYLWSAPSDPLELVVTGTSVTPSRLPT

GPVI on platelets = experiment: Flow cytometric GPVI quantitation; assay type: cell-based, human; conditions: dimers versus resting platelets
[1] = tested on: GPVI dimer on washed platelets; experiment: Time and agonist concentration dependence of dimer increase; assay type: cell-based, human
[2] = CRP 5 μg/ml or thrombin 0.2 unit/ml, washed platelets 2.5 × 10^8 cells/ml

Row | Kd (monomer)/Kd (dimer) (GPVI-Fc2 (GPVI dimer)) | Hill coefficient for dimer binding (GPVI-Fc2 (GPVI dimer); mean ± S.E., n = 4-12 as printed) | Substance | % increase after activation (GPVI on platelets) | time after which dimer levels started to increase [1, 2] | time at which dimer level reaches a maximum [1, 2] | agonist concentration at which dimer level reaches a maximum ([1]; washed platelets 1 × 10^8 cells/ml, FITC-m-Fab-F 100 μg/ml)
1 | 887.0 |  | GPC–(GPP)5–GAOGARGGAGPOGPEGGKGAAGPOGPO(GPP)5–GPC–NH2 [III-30A] |  |  |  | 
2 |  |  | Thrombin: bovine thrombin (Sigma), platelet agonist | 55% | 30 s | 4 to 5 min | > 0.5 unit/ml
3 | 194.3 | 1.14 ± 0.07 | Collagen type I: Pepsin-treated bovine type I collagen from Koken |  |  |  | 
